Reference: US20250144067A1, “PERSONALIZED STARVATION THERAPY FOR CANCER” (Faeth Therapeutics, Inc., priority 2021, published 2025)
Counter-ions that a name gives are not always drawn.

How the values were obtained:
[1] = test system: NCI-H292 lung cancer cells; assay: FDA drug screening, complete media vs cholesterol-free media without statin (TABLE 1); type: cell-based, human
[2] = test system: NCI-H292 lung cancer cells; assay: FDA drug screening, complete media vs cholesterol-free media with simvastatin (TABLE 2); type: cell-based, human; conditions: for Cholesterol-free media + simvastatin (0.04 μM) / Complete Media: NCI-H292 cells
[3] = Complete minus Cholesterol-free, greater than 0 enhanced anti-cancer activity, about 0 neutral, below 0 antagonist
[4] = NCI-H292 cells, FDA drug library screen, cholesterol-free media without statin
[5] = NCI-H292 cells, FDA drug library screen, complete media
[6] = cholesterol-free media with simvastatin 0.04 μM, cell growth value in FDA drug screen
[7] = complete media, cell growth value in FDA drug screen
[8] = complete media minus cholesterol-free media + simvastatin, >0 enhanced anti-cancer activity, about 0 neutral, <0 antagonist
[9] = NCI-H292 cells, cholesterol-free media without statin, FDA drug library screen
[10] = NCI-H292 cells, complete media, FDA drug library screen
[11] = complete vs cholesterol-free media, >0 enhanced anti-cancer activity, about 0 neutral, <0 antagonist
[12] = FDA drug library screen, cholesterol-free media with simvastatin 0.04 μM
[13] = FDA drug library screen, complete media
[14] = NCI-H292 cells, cholesterol-free media without statin
[15] = complete vs cholesterol-free media, greater than 0 enhanced anti-cancer activity, about 0 neutral, below 0 antagonists
[16] = drug in cholesterol-free media with simvastatin 0.04 μM
[17] = complete media vs cholesterol-free media + simvastatin (0.04 μM), >0 enhanced anti-cancer activity, about 0 neutral, <0 antagonist
[18] = Complete minus Cholesterol-free, greater than 0 enhanced anti-cancer activity, about 0 neutral, below 0 antagonists
[19] = NCI-H292 cells in cholesterol-free media without statin
[20] = NCI-H292 cells in complete media
[21] = FDA library drug in cholesterol-free media with simvastatin 0.04 μM
[22] = FDA library drug in complete media
[23] = Complete minus Cholesterol-free, >0 enhanced anti-cancer activity, about 0 neutral, <0 antagonist
[24] = cholesterol-free media with simvastatin 0.04 μM, FDA drug library screen (TABLE 2)
[25] = complete media, FDA drug library screen (TABLE 2)
[26] = complete media minus cholesterol-free media + simvastatin (0.04 μM), >0 enhanced anti-cancer activity, about 0 neutral, <0 antagonist
[27] = complete media vs cholesterol-free media + simvastatin (0.04 μM), […]

Compound: O=C(Nc1cccc2c(=O)cc(-c3nnn[nH]3)oc12)c1ccc(OCCCCc2ccccc2)cc1 [Pranlukast (hemihydrate)]
- Difference [1, 3]: −0.10
- Cholesterol-free [1, 4]: 1.075
- Complete [1, 5]: 0.9755
- Cholesterol-free media + simvastatin (0.04 μM) [2, 6]: 1.189
- Complete Media [2, 7]: 1.285
- Difference [2, 8]: 0.10

Compound: NNC(=O)c1ccncc1 [Isoniazid]
- Cholesterol-free [1, 9]: 0.6633
- Complete [1, 10]: 1.357
- Difference [1, 11]: 0.69
- Cholesterol-free media + simvastatin (0.04 μM) [2, 12]: 1.455
- Complete Media [2, 13]: 1.672
- Difference [2, 8]: 0.22

Compound: CC(Cc1cccc(C(F)(F)F)c1)NCCOC(=O)c1ccccc1 (centres unmarked) [Benfluorex (hydrochloride)]
- Cholesterol-free [1, 14]: 1.106
- Complete ([1]; NCI-H292 cells, complete media): 0.6694
- Difference [1, 15]: −0.44
- Cholesterol-free media + simvastatin (0.04 μM) [2, 16]: 1.041
- Complete Media ([2]; drug in complete media): 0.8151
- Difference [2, 17]: −0.23

Compound: COc1c2occc2cc2ccc(=O)oc12 [Methoxsalen]
- Difference [1, 18]: −0.72
- Cholesterol-free [1, 19]: 1.514
- Complete [1, 20]: 0.7902
- Cholesterol-free media + simvastatin (0.04 μM) [2, 21]: 1.34
- Complete Media [2, 22]: 0.9575
- Difference [2, 17]: −0.38

Compound: Clc1ccc(CO/N=C(\Cn2ccnc2)c2ccc(Cl)cc2Cl)c(Cl)c1 [Oxiconazole nitrate]
- Difference [1, 23]: 0.00
- Cholesterol-free [1, 9]: 0.7425
- Complete [1, 10]: 0.7401
- Cholesterol-free media + simvastatin (0.04 μM) [2, 12]: 0.3071
- Complete Media [2, 13]: 1.067
- Difference [2, 8]: 0.76

Compound: NC(=O)C(c1ccccc1)(c1ccccc1)[C@@H]1CCN(CCc2ccc3c(c2)CCO3)C1 [Darifenacin (hydrobromide)]
- Difference [1, 3]: −0.11
- Cholesterol-free [1, 4]: 1.186
- Complete [1, 5]: 1.075
- Cholesterol-free media + simvastatin (0.04 μM) [2, 12]: 1.197
- Complete Media [2, 13]: 1.073
- Difference [2, 17]: −0.12

Compound: CSCC[C@H](N)C(=O)O [L-Methionine]
- Difference [1, 3]: −0.12
- Cholesterol-free [1, 4]: 0.9015
- Complete [1, 5]: 0.7822
- Cholesterol-free media + simvastatin (0.04 μM) [2, 6]: 0.8406
- Complete Media [2, 7]: 0.8869
- Difference [2, 8]: 0.05

Compound: CC[C@H]1OC(=O)[C@H](C)[C@@H](O[C@H]2C[C@@](C)(OC)[C@@H](O)[C@H](C)O2)[C@H](C)[C@@H](O[C@@H]2O[C@H](C)C[C@H](N(C)C)[C@H]2O)[C@](C)(O)C[C@@H](C)C(=O)[C@H](C)[C@@H](O)[C@]1(C)O [Erythromycin]
- Difference [1, 18]: −0.99
- Cholesterol-free [1, 19]: 1.913
- Complete [1, 20]: 0.9269
- Cholesterol-free media + simvastatin (0.04 μM) [2, 16]: 1.202
- Complete Media ([2]; drug in complete media): 0.9929
- Difference [2, 17]: −0.21

Compound: CC(=O)N[C@H]1[C@H]([C@H](O)[C@H](O)CO)OC(C(=O)O)=C[C@@H]1N=C(N)N [Zanamivir]
- Difference [1, 18]: −0.85
- Cholesterol-free [1, 19]: 1.947
- Complete [1, 20]: 1.097
- Cholesterol-free media + simvastatin (0.04 μM) [2, 16]: 1.295
- Complete Media ([2]; drug in complete media): 1.107
- Difference [2, 17]: −0.19

Compound: CCCC(CCC)C(=O)O [Valproic acid (sodium salt)]
- Difference [1, 23]: −0.26
- Cholesterol-free [1, 14]: 0.9818
- Complete ([1]; NCI-H292 cells, complete media): 0.7267
- Cholesterol-free media + simvastatin (0.04 μM) [2, 16]: 0.961
- Complete Media ([2]; drug in complete media): 0.7238
- Difference [2, 17]: −0.24

Compound: CCCN1CCCC[C@H]1C(=O)Nc1c(C)cccc1C [Ropivacaine (hydrochloride)]
- Difference [1, 23]: 0.07
- Cholesterol-free [1, 9]: 1.2
- Complete [1, 10]: 1.265
- Cholesterol-free media + simvastatin (0.04 μM) [2, 16]: 1.189
- Complete Media ([2]; drug in complete media): 0.9899
- Difference [2, 17]: −0.20

Compound: CN(Cc1cnc2nc(N)nc(N)c2n1)c1ccc(C(=O)N[C@@H](CCC(=O)O)C(=O)O)cc1 [Methotrexate]
- Difference [1, 3]: −0.13
- Cholesterol-free [1, 4]: 0.225
- Complete [1, 5]: 0.09944
- Cholesterol-free media + simvastatin (0.04 μM) [2, 24]: 0.1275
- Complete Media [2, 25]: 0.1078
- Difference [2, 26]: −0.02

Compound: N[C@@H]1c2cccnc2[C@H](OC(=O)N2CCC(n3c(=O)[nH]c4ncccc43)CC2)CC[C@H]1c1cccc(F)c1F [Rimegepant]
- Cholesterol-free [1, 14]: 1.457
- Complete ([1]; NCI-H292 cells, complete media): 0.9844
- Difference [1, 15]: −0.47
- Cholesterol-free media + simvastatin (0.04 μM) [2, 16]: 1.311
- Complete Media ([2]; drug in complete media): 1.114
- Difference [2, 17]: −0.20

Compound: CC1OC2(CS1)CN1CCC2CC1 (centres unmarked) [Cevimeline (hydrochloride hemihydrate)]
- Cholesterol-free [1, 9]: 0.5656
- Complete [1, 10]: 1.046
- Difference [1, 11]: 0.48
- Cholesterol-free media + simvastatin (0.04 μM) [2, 24]: 0.9444
- Complete Media [2, 25]: 0.9482
- Difference [2, 26]: 0.00

Compound: CCOC(=O)[C@H](CCc1ccccc1)N[C@@H](C)C(=O)N(CC(=O)O)C1Cc2ccccc2C1 [Delapril (hydrochloride)]
- Difference [1, 23]: −0.30
- Cholesterol-free [1, 14]: 1.222
- Complete ([1]; NCI-H292 cells, complete media): 0.9182
- Cholesterol-free media + simvastatin (0.04 μM) [2, 6]: 0.7815
- Complete Media [2, 7]: 0.8772
- Difference [2, 8]: 0.10

Compound: CCCc1nc2c(C)cc(-c3nc4ccccc4n3C)cc2n1Cc1ccc(-c2ccccc2C(=O)O)cc1 [Telmisartan]
- Difference [1, 23]: −0.06
- Cholesterol-free [1, 9]: 1.319
- Complete [1, 10]: 1.255
- Cholesterol-free media + simvastatin (0.04 μM) [2, 6]: 0.8657
- Complete Media [2, 7]: 0.906
- Difference [2, 8]: 0.04

Compound: C[C@@H]1O[C@@H](OC[C@H]2O[C@@H](Oc3c(-c4ccc(OCCO)c(OCCO)c4)oc4cc(OCCO)cc(O)c4c3=O)[C@H](O)[C@@H](O)[C@@H]2O)[C@H](O)[C@H](O)[C@H]1O [Troxerutin]
- Difference [1, 3]: −0.13
- Cholesterol-free [1, 4]: 1.15
- Complete [1, 5]: 1.021
- Cholesterol-free media + simvastatin (0.04 μM) [2, 6]: 0.8482
- Complete Media [2, 7]: 0.9455
- Difference [2, 8]: 0.10

Compound: Cc1ccccc1C(=O)Nc1ccc(C(=O)N2CCCC(N(C)C)c3ccccc32)cc1 (centres unmarked) [Mozavaptan]
- Difference [1, 23]: −0.20
- Cholesterol-free [1, 14]: 0.8282
- Complete ([1]; NCI-H292 cells, complete media): 0.6332
- Cholesterol-free media + simvastatin (0.04 μM) [2, 21]: 1.121
- Complete Media [2, 22]: 0.8375
- Difference [2, 17]: −0.28

Compound: CC(=O)OCC1=C(C(=O)O)N2C(=O)[C@@H](NC(=O)CSC(=NC(C)C)NC(C)C)[C@H]2SC1 [Cefathiamidine]
- Difference ([1]; Complete minus Cholesterol-free, […]): −0.30
- Cholesterol-free [1, 14]: 1.276
- Complete ([1]; NCI-H292 cells, complete media): 0.9789
- Cholesterol-free media + simvastatin (0.04 μM) [2, 12]: 0.9136
- Complete Media [2, 13]: 0.833
- Difference [2, 27]: −0.08

Compound: CCN(CC)CC(=O)Nc1c(C)cccc1C [Lidocaine]
- Difference [1, 18]: −0.78
- Cholesterol-free [1, 19]: 1.775
- Complete [1, 20]: 0.9935
- Cholesterol-free media + simvastatin (0.04 μM) [2, 21]: 1.433
- Complete Media [2, 22]: 1.088
- Difference [2, 17]: −0.34

Compound: CS(=O)(=O)c1cccc(C[C@H](NC(=O)c2c(Cl)cc3c(c2Cl)CCN(C(=O)c2ccc4ccoc4c2)C3)C(=O)O)c1 [Lifitegrast]
- Difference [1, 3]: −0.15
- Cholesterol-free [1, 4]: 1.11
- Complete [1, 5]: 0.9552
- Cholesterol-free media + simvastatin (0.04 μM) [2, 12]: 1.009
- Complete Media [2, 13]: 0.8652
- Difference [2, 17]: −0.14

Compound: CCCCc1nc(C)c(CC(=S)N(C)C)c(=O)n1Cc1ccc(-c2ccccc2-c2nnn[nH]2)cc1 [Fimasartan]
- Difference [1, 3]: −0.08
- Cholesterol-free [1, 4]: 1.327
- Complete [1, 5]: 1.249
- Cholesterol-free media + simvastatin (0.04 μM) [2, 24]: 1.27
- Complete Media [2, 25]: 1.222
- Difference [2, 26]: −0.05

Compound: COc1ccc2c(c1OC)C(=O)O[C@@H]2[C@H]1c2c(cc3c(c2OC)OCO3)CCN1C [Noscapine]
- Difference [1, 23]: −0.20
- Cholesterol-free [1, 14]: 1.288
- Complete ([1]; NCI-H292 cells, complete media): 1.088
- Cholesterol-free media + simvastatin (0.04 μM) [2, 12]: 0.7586
- Complete Media [2, 13]: 1.21
- Difference [2, 8]: 0.45

Compound: COC(=O)N[C@H](C(=O)N1CCC[C@H]1c1nc(-c2ccc3c(c2)O[C@@H](c2ccccc2)n2c-3cc3cc(-c4c[nH]c([C@@H]5CCCN5C(=O)[C@@H](NC(=O)OC)C(C)C)n4)ccc32)c[nH]1)C(C)C [Elbasvir]
- Difference [1, 18]: −0.70
- Cholesterol-free [1, 19]: 1.334
- Complete [1, 20]: 0.6346
- Cholesterol-free media + simvastatin (0.04 μM) [2, 24]: 0.9746
- Complete Media [2, 25]: 0.9378
- Difference [2, 26]: −0.04

Compound: O=c1[nH]c(=O)n([C@H]2C[C@H](O)[C@@H](CO)O2)cc1F [Floxuridine]
- Difference [1, 23]: −0.01
- Cholesterol-free [1, 9]: 0.09159
- Complete [1, 10]: 0.08047
- Cholesterol-free media + simvastatin (0.04 μM) [2, 24]: 0.09098
- Complete Media [2, 25]: 0.02907
- Difference [2, 26]: −0.06

Compound: CC1(C)OC[C@@H](COC(=O)CCc2ccc(OC[C@@H](O)CNCCNC(=O)N3CCOCC3)cc2)O1 [Landiolol (hydrochloride)]
- Cholesterol-free [1, 14]: 1.352
- Complete ([1]; NCI-H292 cells, complete media): 0.8842
- Difference [1, 15]: −0.47
- Cholesterol-free media + simvastatin (0.04 μM) [2, 12]: 1.311
- Difference [2, 17]: −0.14

Compound: O=C(O[C@H]1C[C@H]2CC[C@@H](C1)[N+]21CCCC1)C(O)(c1ccccc1)c1ccccc1.[Cl-] [Trospium (chloride)]
- Cholesterol-free [1, 9]: 1.278
- Complete [1, 10]: 1.859
- Difference ([1]; complete vs cholesterol-free media, […]): 0.58
- Cholesterol-free media + simvastatin (0.04 μM) [2, 21]: 2.08
- Complete Media [2, 22]: 1.646
- Difference [2, 27]: −0.43
